# Assay results as given in BindingDB's records for doi:10.1021/jm980217s (Abbott Laboratories, 1998).
# Experiment: Binding affinity for endothelin B receptor by measuring its ability to displace [125I]-ET-3 from porcine cerebellar tissue
row,SMILES,IC50
1,"CCCCN(CCCC)C(=O)CN1C[C@H](c2ccc3c(c2)OCO3)[C@@H](C(=O)O)[C@@H]1C(C)(C)CCCC [(2R,3R,4S)-4-Benzo[1,3]dioxol-5-yl-1-dibutylcarbamoylmethyl-2-(1,1-dimethyl-pentyl)-pyrrolidine-3-carboxylic acid]",36 µM
2,"CCCCN(CCCC)C(=O)CN1C[C@H](c2ccc3c(c2)OCO3)[C@@H](C(=O)O)[C@@H]1CC(C)(C)C=C(C)C [(2S,3R,4S)-4-Benzo[1,3]dioxol-5-yl-1-dibutylcarbamoylmethyl-2-(2,2,4-trimethyl-pent-3-enyl)-pyrrolidine-3-carboxylic acid]",64 µM
3,"CCCCN(CCCC)C(=O)CN1C[C@H](c2ccc3c(c2)OCO3)[C@@H](C(=O)O)[C@@H]1CC(C)(C)CCC [(2S,3R,4S)-4-Benzo[1,3]dioxol-5-yl-1-dibutylcarbamoylmethyl-2-(2,2-dimethyl-pentyl)-pyrrolidine-3-carboxylic acid]",62 µM
4,"CCCCN(CCCC)C(=O)CN1C[C@H](c2ccc3c(c2)OCO3)[C@@H](C(=O)O)[C@@H]1CCC1OCCCO1 [(2S,3R,4S)-4-Benzo[1,3]dioxol-5-yl-1-dibutylcarbamoylmethyl-2-(2-[1,3]dioxan-2-yl-ethyl)-pyrrolidine-3-carboxylic acid]",62 µM
5,"CCCCN(CCCC)C(=O)CN1C[C@H](c2ccc3c(c2)OCO3)[C@@H](C(=O)O)[C@@H]1CC(C)(C)C1OCCO1 [(2S,3R,4S)-4-Benzo[1,3]dioxol-5-yl-1-dibutylcarbamoylmethyl-2-(2-[1,3]dioxolan-2-yl-2-methyl-propyl)-pyrrolidine-3-carboxylic acid]",> 100 µM
6,"CCCCN(CCCC)C(=O)CN1C[C@H](c2ccc3c(c2)OCO3)[C@@H](C(=O)O)[C@@H]1CCC1OCCO1 [(2S,3R,4S)-4-Benzo[1,3]dioxol-5-yl-1-dibutylcarbamoylmethyl-2-(2-[1,3]dioxolan-2-yl-ethyl)-pyrrolidine-3-carboxylic acid]",> 100 µM
7,"CCCCN(CCCC)C(=O)CN1C[C@H](c2ccc3c(c2)OCO3)[C@@H](C(=O)O)[C@@H]1CCC1SCCS1 [(2S,3R,4S)-4-Benzo[1,3]dioxol-5-yl-1-dibutylcarbamoylmethyl-2-(2-[1,3]dithiolan-2-yl-ethyl)-pyrrolidine-3-carboxylic acid]",29.3 µM
8,"CCCCN(CCCC)C(=O)CN1C[C@H](c2ccc3c(c2)OCO3)[C@@H](C(=O)O)[C@@H]1CCc1ccco1 [(2S,3R,4S)-4-Benzo[1,3]dioxol-5-yl-1-dibutylcarbamoylmethyl-2-(2-furan-2-yl-ethyl)-pyrrolidine-3-carboxylic acid]",47 µM
9,"CCCCN(CCCC)C(=O)CN1C[C@H](c2ccc3c(c2)OCO3)[C@@H](C(=O)O)[C@@H]1CCc1ccoc1 [(2S,3R,4S)-4-Benzo[1,3]dioxol-5-yl-1-dibutylcarbamoylmethyl-2-(2-furan-3-yl-ethyl)-pyrrolidine-3-carboxylic acid]",26 µM
10,"CCCCN(CCCC)C(=O)CN1C[C@H](c2ccc3c(c2)OCO3)[C@@H](C(=O)O)[C@@H]1CC(C)CCC (stereo partly drawn) [(2S,3R,4S)-4-Benzo[1,3]dioxol-5-yl-1-dibutylcarbamoylmethyl-2-(2-methyl-pentyl)-pyrrolidine-3-carboxylic acid]",71 µM
11,"CCCCN(CCCC)C(=O)CN1C[C@H](c2ccc3c(c2)OCO3)[C@@H](C(=O)O)[C@@H]1CCc1ncco1 [(2S,3R,4S)-4-Benzo[1,3]dioxol-5-yl-1-dibutylcarbamoylmethyl-2-(2-oxazol-2-yl-ethyl)-pyrrolidine-3-carboxylic acid]",> 100 µM
12,"CCCCN(CCCC)C(=O)CN1C[C@H](c2ccc3c(c2)OCO3)[C@@H](C(=O)O)[C@@H]1CC(CCC)CCC [(2S,3R,4S)-4-Benzo[1,3]dioxol-5-yl-1-dibutylcarbamoylmethyl-2-(2-propyl-pentyl)-pyrrolidine-3-carboxylic acid]",95 µM
13,"CCCCN(CCCC)C(=O)CN1C[C@H](c2ccc3c(c2)OCO3)[C@@H](C(=O)O)[C@@H]1CCn1cccn1 [(2S,3R,4S)-4-Benzo[1,3]dioxol-5-yl-1-dibutylcarbamoylmethyl-2-(2-pyrazol-1-yl-ethyl)-pyrrolidine-3-carboxylic acid]",28.6 µM
14,"CCCCN(CCCC)C(=O)CN1C[C@H](c2ccc3c(c2)OCO3)[C@@H](C(=O)O)[C@@H]1CCc1ccccn1 [(2S,3R,4S)-4-Benzo[1,3]dioxol-5-yl-1-dibutylcarbamoylmethyl-2-(2-pyridin-2-yl-ethyl)-pyrrolidine-3-carboxylic acid]",14.1 µM
15,"CCCCN(CCCC)C(=O)CN1C[C@H](c2ccc3c(c2)OCO3)[C@@H](C(=O)O)[C@@H]1CCCC1OCCO1 [(2S,3R,4S)-4-Benzo[1,3]dioxol-5-yl-1-dibutylcarbamoylmethyl-2-(3-[1,3]dioxolan-2-yl-propyl)-pyrrolidine-3-carboxylic acid]",50 µM
16,"CCCCN(CCCC)C(=O)CN1C[C@H](c2ccc3c(c2)OCO3)[C@@H](C(=O)O)[C@@H]1CCC(CC)CC [(2S,3R,4S)-4-Benzo[1,3]dioxol-5-yl-1-dibutylcarbamoylmethyl-2-(3-ethyl-pentyl)-pyrrolidine-3-carboxylic acid]",72 µM

row,SMILES,IC50
1,"CCCCN(CCCC)C(=O)CN1C[C@H](c2ccc3c(c2)OCO3)[C@@H](C(=O)O)[C@@H]1CCC=C(C)C [(2S,3R,4S)-4-Benzo[1,3]dioxol-5-yl-1-dibutylcarbamoylmethyl-2-(4-methyl-pent-3-enyl)-pyrrolidine-3-carboxylic acid]",33.2 µM
2,"C=C(C)CCC[C@H]1[C@H](C(=O)O)[C@@H](c2ccc3c(c2)OCO3)CN1CC(=O)N(CCCC)CCCC [(2S,3R,4S)-4-Benzo[1,3]dioxol-5-yl-1-dibutylcarbamoylmethyl-2-(4-methyl-pent-4-enyl)-pyrrolidine-3-carboxylic acid]",36 µM
3,"CCCCN(CCCC)C(=O)CN1C[C@H](c2ccc3c(c2)OCO3)[C@@H](C(=O)O)[C@@H]1CCCC(C)C [(2S,3R,4S)-4-Benzo[1,3]dioxol-5-yl-1-dibutylcarbamoylmethyl-2-(4-methyl-pentyl)-pyrrolidine-3-carboxylic acid]",35.8 µM
4,"CCCCN(CCCC)C(=O)CN1C[C@H](c2ccc3c(c2)OCO3)[C@@H](C(=O)O)[C@@H]1CCCCC(F)(F)F [(2S,3R,4S)-4-Benzo[1,3]dioxol-5-yl-1-dibutylcarbamoylmethyl-2-(5,5,5-trifluoro-pentyl)-pyrrolidine-3-carboxylic acid]",34 µM
5,"C/C=C(\C)CC[C@H]1[C@H](C(=O)O)[C@@H](c2ccc3c(c2)OCO3)CN1CC(=O)N(CCCC)CCCC [(2S,3R,4S)-4-Benzo[1,3]dioxol-5-yl-1-dibutylcarbamoylmethyl-2-((E)-3-methyl-pent-3-enyl)-pyrrolidine-3-carboxylic acid]",48 µM
6,"CCCCN(CCCC)C(=O)CN1C[C@H](c2ccc3c(c2)OCO3)[C@@H](C(=O)O)[C@@H]1CC/C=C(/C)CC [(2S,3R,4S)-4-Benzo[1,3]dioxol-5-yl-1-dibutylcarbamoylmethyl-2-((Z)-4-methyl-hex-3-enyl)-pyrrolidine-3-carboxylic acid]",7 µM
7,"CCCCN(CCCC)C(=O)CN1C[C@H](c2ccc3c(c2)OCO3)[C@@H](C(=O)O)[C@@H]1CCc1cccn1C [(2S,3R,4S)-4-Benzo[1,3]dioxol-5-yl-1-dibutylcarbamoylmethyl-2-[2-(1-methyl-1H-pyrrol-2-yl)-ethyl]-pyrrolidine-3-carboxylic acid]",43.6 µM
8,"CCCCN(CCCC)C(=O)CN1C[C@H](c2ccc3c(c2)OCO3)[C@@H](C(=O)O)[C@@H]1CCN1C(=O)CCC1=O [(2S,3R,4S)-4-Benzo[1,3]dioxol-5-yl-1-dibutylcarbamoylmethyl-2-[2-(2,5-dioxo-pyrrolidin-1-yl)-ethyl]-pyrrolidine-3-carboxylic acid]",> 100 µM
9,"CCCCN(CCCC)C(=O)CN1C[C@H](c2ccc3c(c2)OCO3)[C@@H](C(=O)O)[C@@H]1CCn1ccccc1=O [(2S,3R,4S)-4-Benzo[1,3]dioxol-5-yl-1-dibutylcarbamoylmethyl-2-[2-(2-oxo-2H-pyridin-1-yl)-ethyl]-pyrrolidine-3-carboxylic acid]",41 µM
10,"CCCCN(CCCC)C(=O)CN1C[C@H](c2ccc3c(c2)OCO3)[C@@H](C(=O)O)[C@@H]1CCN1CCCCC1=O [(2S,3R,4S)-4-Benzo[1,3]dioxol-5-yl-1-dibutylcarbamoylmethyl-2-[2-(2-oxo-piperidin-1-yl)-ethyl]-pyrrolidine-3-carboxylic acid]",85 µM
11,"CCCCN(CCCC)C(=O)CN1C[C@H](c2ccc3c(c2)OCO3)[C@@H](C(=O)O)[C@@H]1CCN1CCCC1=O [(2S,3R,4S)-4-Benzo[1,3]dioxol-5-yl-1-dibutylcarbamoylmethyl-2-[2-(2-oxo-pyrrolidin-1-yl)-ethyl]-pyrrolidine-3-carboxylic acid]",65.4 µM
12,"CCCCN(CCCC)C(=O)CN1C[C@H](c2ccc3c(c2)OCO3)[C@@H](C(=O)O)[C@@H]1CCC1OC(C)C(C)O1 (stereo partly drawn) [(2S,3R,4S)-4-Benzo[1,3]dioxol-5-yl-1-dibutylcarbamoylmethyl-2-[2-(4,5-dimethyl-[1,3]dioxolan-2-yl)-ethyl]-pyrrolidine-3-carboxylic acid]",48 µM
13,"CCCCN(CCCC)C(=O)CN1C[C@H](c2ccc3c(c2)OCO3)[C@@H](C(=O)O)[C@@H]1CCc1nc(C)c(C)o1 [(2S,3R,4S)-4-Benzo[1,3]dioxol-5-yl-1-dibutylcarbamoylmethyl-2-[2-(4,5-dimethyl-oxazol-2-yl)-ethyl]-pyrrolidine-3-carboxylic acid]",29.7 µM
14,"CCCCN(CCCC)C(=O)CN1C[C@H](c2ccc3c(c2)OCO3)[C@@H](C(=O)O)[C@@H]1CCC1CCCO1 (stereo partly drawn) [(2S,3R,4S)-4-Benzo[1,3]dioxol-5-yl-1-dibutylcarbamoylmethyl-2-[2-(tetrahydro-furan-2-yl)-ethyl]-pyrrolidine-3-carboxylic acid]",> 100 µM
15,"CCCCN(CCCC)C(=O)CN1C[C@H](c2ccc3c(c2)OCO3)[C@@H](C(=O)O)[C@@H]1CCC1CCCCO1 (stereo partly drawn) [(2S,3R,4S)-4-Benzo[1,3]dioxol-5-yl-1-dibutylcarbamoylmethyl-2-[2-(tetrahydro-pyran-2-yl)-ethyl]-pyrrolidine-3-carboxylic acid]",47.8 µM
16,"CCCCN(CCCC)C(=O)CN1C[C@H](c2ccc3c(c2)OCO3)[C@@H](C(=O)O)[C@@H]1CCC1CCOCC1 [(2S,3R,4S)-4-Benzo[1,3]dioxol-5-yl-1-dibutylcarbamoylmethyl-2-[2-(tetrahydro-pyran-4-yl)-ethyl]-pyrrolidine-3-carboxylic acid]",> 100 µM
